Experimental data from patent US12281123B2, “Benzoxazinone compounds as KLK5/7 dual inhibitors” (MOLECULAR SKIN THERAPEUTICS, INC., priority 2019, dated 2025).
Values joined by “and” are separate entries in the source; they are usually repeats but may differ in a detail not shown here. Equal entries are not always repeated. Where two headings read alike, the source gives them in different places.

What was measured:
Type in all cases: biochemical
Recombinant human KLK5 = target: T1, Recombinant human KLK5 (Homo sapiens, UniProt Q9Y337); assay: Recombinant KLK5 chromogenic IC50 assay
T1 construct: purchased SpeedBio (Gaithersburg, MD) / SpeedBioSystems; host or cells: HEK293
T1 sequence (Q9Y337 23-293): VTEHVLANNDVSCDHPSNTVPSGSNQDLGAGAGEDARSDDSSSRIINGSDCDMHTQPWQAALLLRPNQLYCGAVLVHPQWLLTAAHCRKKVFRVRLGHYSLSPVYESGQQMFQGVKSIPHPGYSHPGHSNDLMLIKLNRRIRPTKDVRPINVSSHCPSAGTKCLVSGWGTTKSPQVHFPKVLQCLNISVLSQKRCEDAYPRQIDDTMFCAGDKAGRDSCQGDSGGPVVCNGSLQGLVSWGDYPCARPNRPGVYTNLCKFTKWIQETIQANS
Text: (§1) Human Kallikrein Proteins: Recombinant human KLK5 expressed in HEK293 was obtained from SpeedBio (Gaithersburg, MD). Recombinant proenzyme KLK-7 and recombinant proenzyme KLK-14 both expressed in mouse myeloma cells were from R&D Biosystems (Minneapolis, MN). Plasmin and thrombin were from Haematologic Technologies (Essex Junction, VT). Trypsin and Chymotrypsin were bought from Worthington Biochemical Corporation (Lakewood, NJ) and plasma kallikrein was from Prospec (East Brunswick, NJ). Neutrophil Elastase was obtained from Innovative Research (Peary Court, MI). Bovine recombinant enterokinase expressed in E. coli was bought from Sigma (St. Louis, MI). Matriptase expressed in E. coli was obtained from Enzo Life Sciences (Farmingdale, NY). The control inhibitors Nafamostat mesylate was from Sigma (St. Louis, MI) and (2-(2-fluorophenyl)-5,6,7,8-tetrahydro-4H-benzo[4,5]thieno[2,3-d][1,3]oxazin-4-one was from Interbioscreen (Moskow, Russia).
(§2) Substrates: S-2288 (D-Ile-Pro-Arg-pNA), CS-PSA (MeO-Suc-Arg-Pro-Tyr-pNA), S-2266 (H-D-Val-Leu-Arg-pNA) and S-2288 (H-D-Ile-Pro-Arg-pNA) were bought from Diapharma (West Chester, OH). MeOSuccAla-Ala-Pro-Val-pNA was purchased from Sigma (St Louis, MI). The substrates were dissolved in water at 10 mM and were frozen in aliquots at −20° C.
(§3) Assays: All assays were performed in 384 well polystyrene plates coated overnight with 0.1% Tween 20 at 4° C. The plates were then washed twice with 100 μL water and dried. For the determination of IC50 values, the inhibitors were diluted in serial dilutions of 1:3 intervals into pure DMSO at 50 fold of the intended final concentrations in the assays. Usually eight inhibitor dilutions and one DMSO control were prepared. The substrates were diluted into water at 2.2-fold the final concentration in the assay mixture. The wells of the plate were filled with 50 μL of the enzyme diluted in 2× assay buffer (100 mM Tris, 200 mM NaCl, 0.2% PEG, 0.01% Tween, 2 mM EDTA, pH 8.0) at twofold the intended concentration. Then 5 μL DMSO, 2.2 μL inhibitor and 45 μL substrate were added to start the reaction. The assays were monitored at 37° C. in a multi well plate reader at a wavelength of 405 nm (Molecular Devices, San Jose, CA) for 1 h. The tool inhibitor, nafamostat, was used as a control for trypsin, thrombin, KLK-5 and KLK-14 at 10 μM maximal concentration and (2-(2-fluorophenyl)-5,6,7,8-tetrahydro-4H-benzo[4,5]thieno[2,3-d][1,3]oxazin-4-one for KLK-7 at 5 μM.
The table summarizes assay conditions for the individual enzymes:
Data analysis: The progress curves of substrate hydrolysis were analyzed by linear regression of the final 20 min of the reaction. Fit of the dose response of the resulting rates to the following equation yielded the IC50:
[formula] with 1) c: the background rate at the highest inhibitor concentration; 2) d: the rate of the control reaction; 3) IC50: the IC50 of the inhibitor; 4) x: the inhibitor concentration; and 5) b: the slope.
Proteases: KLK5 (SpeedBioSystems); KLK7 (R&Dsystems) was activated with enterokinase (2 hours, 37° C.) prior to assay; Trypsin (Sigma Aldrich); Chymotrypsin (Sigma Aldrich); Factor Xa (Haematologic Technologies); Plasmin (Haematologic Technologies); KLK14 (R&Dsystems) was activated with enterokinase (1 hour, 37° C.) prior to assay; Thrombin (Haematologic Technologies); Neutrophil Elastase (Athens Research&Technology); and KLK1 (Prospec).

Plasmin = target: T2, Plasmin (Homo sapiens, UniProt P00747); assay: Chromogenic assay, plasmin; settings: Plasmin 1.0 nM; S-2288 500 μM; highest conc. of 1.001 50 μM
T2 construct: purchased Haematologic Technologies (Essex Junction, VT)
T2 sequence (P00747 581-810 limits assumed, species assumed): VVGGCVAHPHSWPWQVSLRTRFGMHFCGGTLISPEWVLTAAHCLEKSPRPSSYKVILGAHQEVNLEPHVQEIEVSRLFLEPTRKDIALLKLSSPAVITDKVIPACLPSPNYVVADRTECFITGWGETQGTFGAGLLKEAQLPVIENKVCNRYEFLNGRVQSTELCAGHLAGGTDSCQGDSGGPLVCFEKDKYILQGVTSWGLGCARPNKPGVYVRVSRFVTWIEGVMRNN
T2 sequence (P00747 97-580 partner limits assumed, species assumed): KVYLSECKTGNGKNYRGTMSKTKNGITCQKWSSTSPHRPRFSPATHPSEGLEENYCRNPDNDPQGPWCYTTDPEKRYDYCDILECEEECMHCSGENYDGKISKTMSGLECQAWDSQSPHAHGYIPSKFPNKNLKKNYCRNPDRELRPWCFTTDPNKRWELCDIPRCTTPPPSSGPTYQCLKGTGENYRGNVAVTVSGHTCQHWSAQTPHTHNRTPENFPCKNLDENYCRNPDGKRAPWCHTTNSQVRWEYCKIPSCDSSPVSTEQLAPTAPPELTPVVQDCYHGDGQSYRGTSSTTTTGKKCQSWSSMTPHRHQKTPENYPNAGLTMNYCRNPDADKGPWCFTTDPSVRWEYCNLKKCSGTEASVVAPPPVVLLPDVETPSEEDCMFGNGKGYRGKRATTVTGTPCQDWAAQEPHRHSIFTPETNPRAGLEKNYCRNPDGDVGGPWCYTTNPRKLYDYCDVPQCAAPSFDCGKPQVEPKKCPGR
Text: as §1, with “Russia). […]” for “Russia).”
(§4) Assays: All assays were performed in 384 well polystyrene plates coated overnight with 0.1% Tween 20 at 4° C. […] The assays were monitored at 37° C. in a multi well plate reader at a wavelength of 405 nm (Molecular Devices, San Jose, CA) for 1 h. […]
(§5) Data analysis: The progress curves of substrate hydrolysis were analyzed by linear regression of the final 20 min of the reaction. […]

Neutrophil Elastase = target: T3, Neutrophil Elastase (Homo sapiens, UniProt P08246); assay: Chromogenic assay, neutrophil elastase; settings: Neutrophil Elastase 0.5 nM; Elastase substrate 1 200 μM; highest conc. of 1.001 100 μM
T3 sequence (P08246 30-267): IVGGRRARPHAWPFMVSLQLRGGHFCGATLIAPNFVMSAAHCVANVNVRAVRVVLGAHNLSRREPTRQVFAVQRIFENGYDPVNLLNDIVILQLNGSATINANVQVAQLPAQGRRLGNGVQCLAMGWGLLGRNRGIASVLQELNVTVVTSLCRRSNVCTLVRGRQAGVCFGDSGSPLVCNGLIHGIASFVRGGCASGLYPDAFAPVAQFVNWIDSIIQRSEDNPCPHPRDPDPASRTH
Text: as §1, with “Russia). […]” for “Russia).”
as §4, §5

KLK1 = target: T4, KLK1 (Homo sapiens, UniProt P06870); assay: Chromogenic assay, KLK1; settings: KLK1 10 nM; S-2266 200 μM; highest conc. of 1.001 50 μM
T4 construct: purchased Prospec
T4 sequence (P06870 25-262): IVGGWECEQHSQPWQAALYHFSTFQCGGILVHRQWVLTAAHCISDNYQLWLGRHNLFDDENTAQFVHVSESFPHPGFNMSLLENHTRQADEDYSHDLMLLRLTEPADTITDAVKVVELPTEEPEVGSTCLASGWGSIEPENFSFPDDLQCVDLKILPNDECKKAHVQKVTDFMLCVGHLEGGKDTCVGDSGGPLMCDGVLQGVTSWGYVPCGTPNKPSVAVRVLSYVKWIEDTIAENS
Description: as §2
as §3, with “The tool inhibitor, nafamostat, was used as a control for trypsin, thrombin, KLK-5 and KLK-14 at 10 μM maximal concentration and (2-(2-fluorophenyl)-5,6,7,8-tetrahydro-4H-benzo[4,5]thieno[2,3-d][1,3]oxazin-4-one for KLK-7 at 5 μM.” left out
as §5

IC50 (Recombinant human KLK5; Table 2, assay protocol of Example 3, read-out: Recombinant KLK5 enzyme (IC50)) [µM]	IC50 (Recombinant human KLK5; Table 3, KLK5 10 nM, S-2288 500 μM, highest conc. of 1.001 10 μM, read-out: IC50 (μM), KLK5)	Inhibition of KLK5, conclusion in words (Recombinant human KLK5; conclusion from Table 3)	IC50 (Plasmin)	SMILES	IC50 (Neutrophil Elastase) [µM]	IC50 (μM), KLK1 (KLK1)	IC50 (μM), KLK5 (Recombinant human KLK5; Table 3, KLK5 10 nM, S-2288 500 μM, highest conc. of 1.001 10 μM)	IC50 (μM), Plasmin (Plasmin)
0.21	0.176 µM and 0.188 µM	inhibitor	3.36 µM and 4.2 µM	CS(=O)(=O)c1cc(CO)ccc1-c1nc2cc3c(cc2c(=O)o1)OCCO3 [Compound 1.001, 2-(4-(Hydroxymethyl)-2-(methylsulfonyl)phenyl)-7,8-dihydro-4H-[1,4]dioxino[2′,3′:4,5]benzo[1,2-d][1,3]oxazin-4-one]	> 50	No inhibition	–	–
–	–	–	–	CS(=O)(=O)c1cc(CO)ccc1C(=O)Nc1cc2c(cc1C(=O)O)OCCO2 [Compound 408, reference compound]	> 500	No inhibition	No inhibition	No inhibition
